Assay results reported in paper PMC10504751, “Chalcone/1,3,4-Oxadiazole/Benzimidazole hybrids as novel anti-proliferative agents inducing apoptosis and inhibiting EGFR & BRAFV^600E” (BMC Chemistry, 2023).
Read-outs that look alike come from different tables or passages of the source.

What was measured:
Test in all cases: NCI one-dose SRB anti-proliferative screen
Type in all cases: cell-based
KM12 = settings: Homo sapiens, read-out: Cell growth inhibition %
Procedure, shortened: (§1)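 Activity reflects a single-point exposure at 10 µM, with cell mass determined by a sulforhodamine B dye assay.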

A498 = settings: Homo sapiens, read-out: Cell growth inhibition %
Procedure, shortened: as §1

SF-295 = settings: Homo sapiens, read-out: Cell growth inhibition %
Procedure, shortened: as §1

SF-268 = settings: Homo sapiens, read-out: Cell growth inhibition %
Procedure, shortened: as §1

U251 = settings: Homo sapiens, U-251, read-out: Cell growth inhibition %
Procedure, shortened: as §1

SNB-75 = settings: Homo sapiens, read-out: Cell growth inhibition %
Procedure, shortened: as §1

NCI-H322M = settings: Homo sapiens, read-out: Cell growth inhibition %
Procedure, shortened: as §1

HS 578T = settings: Homo sapiens, read-out: Cell growth inhibition %
Procedure, shortened: as §1

NCI-H23 = settings: Homo sapiens, read-out: Cell growth inhibition %
Procedure, shortened: as §1

MDA-MB-231/ATCC = settings: Homo sapiens, read-out: Cell growth inhibition %
Procedure, shortened: as §1

DU-145 = settings: Homo sapiens, read-out: Cell growth inhibition %
Procedure, shortened: as §1

HCT-15 = settings: Homo sapiens, read-out: Cell growth inhibition %
Procedure, shortened: as §1

MCF7 = settings: Homo sapiens, read-out: Cell growth inhibition %
Procedure, shortened: as §1

HOP-92 = settings: Homo sapiens, read-out: Cell growth inhibition %
Procedure, shortened: as §1

786-0 = settings: Homo sapiens, read-out: Cell growth inhibition %
Procedure, shortened: as §1

OVCAR-3 = settings: Homo sapiens, read-out: Cell growth inhibition %
Procedure, shortened: as §1

A549/ATCC = settings: Homo sapiens, read-out: Cell growth inhibition %
Procedure, shortened: as §1

SK-MEL-2 = settings: Homo sapiens, read-out: Cell growth inhibition %
Procedure, shortened: as §1

IGROV1 = settings: Homo sapiens, IGROV-1, read-out: Cell growth inhibition %
Procedure, shortened: as §1

CAKI-1 = settings: Homo sapiens, read-out: Cell growth inhibition %
Procedure, shortened: as §1

[1] = KM12, Colon cancer, NCI one dose
[2] = A498, Renal cancer, NCI one dose
[3] = SF-295, CNS Cancer, NCI one dose
[4] = SF-268, CNS Cancer, NCI one dose
[5] = SNB-75, CNS Cancer, NCI one dose
[6] = NCI-H322M, Non-Small Cell Lung Cancer, NCI one dose
[7] = HS 578T, Breast cancer, NCI one dose
[8] = NCI-H23, Non-Small Cell Lung Cancer, NCI one dose
[9] = MDA-MB-231/ATCC, Breast cancer, NCI one dose
[10] = DU-145, Prostate Cancer, NCI one dose
[11] = HCT-15, Colon cancer, NCI one dose
[12] = MCF7, Breast cancer, NCI one dose
[13] = HOP-92, Non-Small Cell Lung Cancer, NCI one dose
[14] = 786-0, Renal cancer, NCI one dose
[15] = OVCAR-3, Ovarian Cancer, NCI one dose
[16] = A549/ATCC, Non-Small Cell Lung Cancer, NCI one dose
[17] = SK-MEL-2, Melanoma, NCI one dose
[18] = IGROV1, Ovarian Cancer, NCI one dose
[19] = CAKI-1, Renal cancer, NCI one dose

Structure (SMILES) | inhibition at 10 µM (KM12; [1]) [%] | inhibition at 10 µM (A498; [2]) [%] | inhibition at 10 µM (SF-295; [3]) [%] | inhibition at 10 µM (SF-268; [4]) [%] | inhibition at 10 µM (U251; U251, CNS Cancer, NCI one dose) [%] | inhibition at 10 µM (SNB-75; [5]) [%] | inhibition at 10 µM (NCI-H322M; [6]) [%] | inhibition at 10 µM (HS 578T; [7]) [%] | inhibition at 10 µM (NCI-H23; [8]) [%] | inhibition at 10 µM (MDA-MB-231/ATCC; [9]) [%] | inhibition at 10 µM (DU-145; [10]) [%] | inhibition at 10 µM (HCT-15; [11]) [%] | inhibition at 10 µM (MCF7; [12]) [%] | inhibition at 10 µM (HOP-92; [13]) [%] | inhibition at 10 µM (786-0; [14]) [%] | inhibition at 10 µM (OVCAR-3; [15]) [%] | inhibition at 10 µM (A549/ATCC; [16]) [%] | inhibition at 10 µM (SK-MEL-2; [17]) [%] | inhibition at 10 µM (IGROV1; [18]) [%] | inhibition at 10 µM (CAKI-1; [19]) [%] | further results
O=C(CSc1nnc(-c2ccc3[nH]c(-c4ccccc4)nc3c2)o1)Nc1ccc(C(=O)/C=C/c2ccccc2)cc1 [Compound 7a, 2-{5-[2-Phenyl-1 H-benzo[d]imidazol-5-yl]-1,3,4-oxadiazol-2-ylthio}-N-{4-[(E)-3-phenylacryloyl]phenyl}acetamide] | 0 | 4.13 | 0 | 0 | 1.83 | 0 | 0 | 0 | 0 | 0 | 0 | 0 | 12.4 | 0 | 0 | 0 | 0 | 0 | 4.17 | 0 | –
O=C(CSc1nnc(-c2ccc3[nH]c(-c4ccccc4)nc3c2)o1)Nc1ccc(C(=O)/C=C/c2ccc(Cl)cc2)cc1 [Compound 7b, 2-{5-[2-Phenyl-1 H-benzo[d]imidazol-5-yl]-1,3,4-oxadiazol-2-ylthio}-N-{4-[(E)-3-(4-chlorophenyl)acryloyl]phenyl}acetamide] | 0 | 6.84 | 0 | 0 | 7.14 | 0 | 0 | 0 | 0 | 4.03 | 0 | 0 | 16.8 | 0 | 2.96 | 0 | 0 | 0 | 15.3 | 1.52 | –
COc1ccc(/C=C/C(=O)c2ccc(NC(=O)CSc3nnc(-c4ccc5[nH]c(-c6ccccc6)nc5c4)o3)cc2)cc1 [Compound 7c, 2-{5-[2-Phenyl-1 H-benzo[d]imidazol-5-yl]-1,3,4-oxadiazol-2-ylthio}-N-{4-[(E)-3-(4-methoxyphenyl)acryloyl]phenyl}acetamide] | 1.55 | 22.6 | 1.65 | 0 | 17.2 | 0 | 0 | 0 | 7.79 | 0 | 0 | 3.81 | 27.5 | 0 | 22.6 | 0 | 0 | 2.65 | 0 | 0 | –
COc1ccc(/C=C/C(=O)c2ccc(NC(=O)CSc3nnc(-c4ccc5[nH]c(-c6ccccc6)nc5c4)o3)cc2)cc1OC [Compound 7d, 2-{5-[2-Phenyl-1 H-benzo[d]imidazol-5-yl]-1,3,4-oxadiazol-2-ylthio}-N-{4-[(E)-3-(3,4-dimethoxyphenyl)acryloyl]phenyl}acetamide] | 0 | 14.3 | 0 | 0 | 5.02 | 0 | 0 | 0 | 0 | 0 | 0 | 0 | 27.3 | 0 | 9.58 | 2.49 | 0 | 0 | 0 | 0 | –
O=C(CSc1nnc(-c2ccc3[nH]c(-c4ccc(Cl)cc4)nc3c2)o1)Nc1ccc(C(=O)/C=C/c2ccccc2)cc1 [Compound 7f, 2-{5-[2-(4-Chlorophenyl)-1 H-benzo[d]imidazol-5-yl]-1,3,4-oxadiazol-2-ylthio}-N-{4-[(E)-3-phenylacryloyl]phenyl}acetamide] | – | – | – | – | – | – | – | – | – | – | – | – | – | – | – | – | – | – | – | – | inhibition at 10 µM (KM12; KM12 (Colon Cancer), NCI one dose 10 µM): 0%; inhibition at 10 µM (A498; A498 (Renal Cancer), NCI one dose 10 µM): 0%; inhibition at 10 µM (SF-295; SF-295 (CNS Cancer), NCI one dose 10 µM): 0%; inhibition at 10 µM (SF-268; SF-268 (CNS Cancer), NCI one dose 10 µM): 0%; inhibition at 10 µM (U251; U251 (CNS Cancer), NCI one dose 10 µM): 3.23%; inhibition at 10 µM (SNB-75; SNB-75 (CNS Cancer), NCI one dose 10 µM): 1.75%; inhibition at 10 µM (NCI-H322M; NCI-H322M (Non-Small Cell Lung Cancer), NCI one dose 10 µM): 0%; inhibition at 10 µM (HS 578T; HS 578T (Breast Cancer), NCI one dose 10 µM): 0%; inhibition at 10 µM (NCI-H23; NCI-H23 (Non-Small Cell Lung Cancer), NCI one dose 10 µM): 0%; inhibition at 10 µM (MDA-MB-231/ATCC; MDA-MB-231/ATCC (Breast Cancer), NCI one dose 10 µM): 2.18%; inhibition at 10 µM (DU-145; DU-145 (Prostate Cancer), NCI one dose 10 µM): 0%; inhibition at 10 µM (HCT-15; HCT-15 (Colon Cancer), NCI one dose 10 µM): 0%; inhibition at 10 µM (MCF7; MCF7 (Breast Cancer), NCI one dose 10 µM): 18.4%; inhibition at 10 µM (HOP-92; HOP-92 (Non-Small Cell Lung Cancer), NCI one dose 10 µM): 0%; inhibition at 10 µM (786-0; 786-0 (Renal Cancer), NCI one dose 10 µM): 0%; inhibition at 10 µM (OVCAR-3; OVCAR-3 (Ovarian Cancer), NCI one dose 10 µM): 0%; inhibition at 10 µM (A549/ATCC; A549/ATCC (Non-Small Cell Lung Cancer), NCI one dose 10 µM): 0%; inhibition at 10 µM (SK-MEL-2; SK-MEL-2 (Melanoma), NCI one dose 10 µM): 0%; inhibition at 10 µM (IGROV1; IGROV1 (Ovarian Cancer), NCI one dose 10 µM): 0%; inhibition at 10 µM (CAKI-1; CAKI-1 (Renal Cancer), NCI one dose 10 µM): 1.83%
COc1ccc(-c2nc3cc(-c4nnc(SCC(=O)Nc5ccc(C(=O)/C=C/c6cc(OC)c(OC)c(OC)c6)cc5)o4)ccc3[nH]2)cc1 [Compound 7o, 2-{5-[2-(4-Methoxyphenyl)-1 H-benzo[d]imidazol-5-yl]-1,3,4-oxadiazol-2-ylthio}-N-{4-[(E)-3-(3,4,5-trimethoxyphenyl)acryloyl]phenyl}acetamide] | 0 | 0 | 0 | 0 | 3.23 | 1.75 | 0 | 0 | 0 | 2.18 | 0 | 0 | 18.4 | 0 | 0 | 0 | 0 | 0 | 0 | 1.83 | –
